Several values for one entry are separate records, joined by “and”; a condition that tells them apart may be missing. Equal entries are not always repeated.
Tests used:
HDAC6 = target: T1, HDAC6 (Homo sapiens, UniProt Q9UBN7); test: In vitro HDAC profiling (deacetylation assay), HDAC6; type: biochemical; settings: for HDAC Activity (Fluorescent counts): Repeat1/Repeat 2
T1 construct: purchased BPS Bioscience #50051-11
T1 sequence (Q9UBN7 1-1215): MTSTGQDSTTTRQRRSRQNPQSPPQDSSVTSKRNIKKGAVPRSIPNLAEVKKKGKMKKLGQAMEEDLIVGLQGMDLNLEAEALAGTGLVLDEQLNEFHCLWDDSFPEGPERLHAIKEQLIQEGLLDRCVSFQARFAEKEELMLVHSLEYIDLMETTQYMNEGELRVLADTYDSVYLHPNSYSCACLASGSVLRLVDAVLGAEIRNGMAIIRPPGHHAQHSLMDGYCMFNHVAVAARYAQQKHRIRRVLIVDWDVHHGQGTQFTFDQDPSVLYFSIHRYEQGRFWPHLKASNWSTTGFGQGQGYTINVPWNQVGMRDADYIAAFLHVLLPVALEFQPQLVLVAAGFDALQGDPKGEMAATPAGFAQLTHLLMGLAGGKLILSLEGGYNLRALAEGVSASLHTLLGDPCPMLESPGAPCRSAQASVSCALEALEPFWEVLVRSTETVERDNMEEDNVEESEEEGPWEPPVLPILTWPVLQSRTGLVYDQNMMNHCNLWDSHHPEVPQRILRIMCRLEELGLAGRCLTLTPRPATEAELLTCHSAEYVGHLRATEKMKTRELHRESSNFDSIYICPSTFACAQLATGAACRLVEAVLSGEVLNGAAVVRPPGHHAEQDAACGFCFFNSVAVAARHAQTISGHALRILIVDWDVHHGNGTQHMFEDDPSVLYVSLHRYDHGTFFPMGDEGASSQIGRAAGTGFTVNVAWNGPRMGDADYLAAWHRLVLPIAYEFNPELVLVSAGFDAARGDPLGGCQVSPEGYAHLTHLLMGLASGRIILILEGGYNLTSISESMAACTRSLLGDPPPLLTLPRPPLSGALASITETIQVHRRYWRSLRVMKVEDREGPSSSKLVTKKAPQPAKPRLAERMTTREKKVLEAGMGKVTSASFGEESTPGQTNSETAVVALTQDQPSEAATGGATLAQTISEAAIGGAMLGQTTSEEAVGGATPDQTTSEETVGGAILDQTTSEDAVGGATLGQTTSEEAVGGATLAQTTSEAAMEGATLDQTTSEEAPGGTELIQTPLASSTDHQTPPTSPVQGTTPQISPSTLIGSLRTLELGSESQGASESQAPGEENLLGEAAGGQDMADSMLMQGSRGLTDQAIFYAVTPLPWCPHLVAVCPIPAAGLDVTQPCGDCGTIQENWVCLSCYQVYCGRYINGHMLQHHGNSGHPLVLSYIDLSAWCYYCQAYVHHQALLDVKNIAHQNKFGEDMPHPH
Procedure: (§1) HDAC profiling was performed at BPS Bioscience (San Diego, CA). All of the compounds are dissolved in DMSO. A series of dilutions of the compounds were prepared with 10% DMSO in HDAC assay buffer (#50031) and 5 µl of the dilution was added to a 50 µl reaction so that the final concentration of DMSO is 1% in all of reactions. All of the enzymatic reactions were conducted in duplicate at 37 °C for 30 mins, except that the enzyme reactions for HDAC11 were at room temperature for 3 hrs. All of the reactions were performed in a 50 µl mixture containing HDAC assay buffer, 5 µg BSA, an HDAC substrate [HDAC Substrate 3 (BPS number 50037) or HDAC Class 2a Substrate 1 (BPS number 50040)], an HDAC enzyme (#50051-11) and a test compound. After enzymatic reactions, 50 μl of HDAC Developer (#50030) was added to each well and the plate was incubated at room temperature for an additional 20 mins. Fluorescence intensity was measured at an excitation of 360 nm and an emission of 460 nm using a Tecan Infinite M1000 microplate reader. HDAC activity assays were performed in duplicates at each concentration. The fluorescent intensity data were analyzed using the computer software, Graphpad Prism. In the absence of the compound, the fluorescent intensity (Ft) in each data set was defined as 100% activity. In the absence of HDAC, the fluorescent intensity (Fb) in each data set was defined as 0% activity. The percent activity in the presence of each compound was calculated according to the following equation: %activity = (F − Fb)/(Ft − Fb), where F = the fluorescent intensity in the presence of the compound. The values of % activity versus a series of compound concentrations were then plotted using non-linear regression analysis of Sigmoidal dose-response curve generated with the equation Y = B + (T − B)/1 + 10((LogIC50 − X) × Hill Slope), where Y = percent activity, B = minimum percent activity, T = maximum percent activity, X = logarithm of compound and Hill Slope = slope factor or Hill coefficient. The IC50 value was determined by the concentration causing a half-maximal percent activity.

HDAC9 = target: T2, HDAC9 (Homo sapiens, UniProt Q9UKV0); test: In vitro HDAC profiling (deacetylation assay), HDAC9; type: biochemical; settings: for HDAC Activity (Fluorescent counts): Repeat1/Repeat 2
T2 construct: purchased BPS Bioscience #50051-11
Procedure: as §1

[1] = system: SMO-L412F in NIH3T3 (GLI-BS reporter); test: GLI-BS reporter assay, NIH3T3 cells with SMO-L412F DNA; type: cell-based; settings: Mus musculus
Procedure: The HH-responsive firefly luciferase reporter (GLI-BS) and a control Renilla luciferase reporter (SV40-RL) were transfected into indicated cell lines using Effectene (Qiagen) either alone or with indicated DNAs. 24 hrs after transfection, cells were switched to low serum media (3% calf serum), and grown for another 48 hrs. in 5% CO2 in the presence/absence of compounds. 3T3-ShhFL cell line that stably expressing SHH and the two reporters were cultured in a similar fashion. FL and RL activities in lysate generated using Passive Lysis Buffer (Promega) were then assessed using the Dual-Luciferase kit (Promega) and a 96-well plate reading luminometer (BMG). The ratio of FL/RL was calculated and the averaged ratios from three replicates were reported.

[2] = in vitro deacetylation assay, duplicates

T2 sequence (Q9UKV0 whole entry): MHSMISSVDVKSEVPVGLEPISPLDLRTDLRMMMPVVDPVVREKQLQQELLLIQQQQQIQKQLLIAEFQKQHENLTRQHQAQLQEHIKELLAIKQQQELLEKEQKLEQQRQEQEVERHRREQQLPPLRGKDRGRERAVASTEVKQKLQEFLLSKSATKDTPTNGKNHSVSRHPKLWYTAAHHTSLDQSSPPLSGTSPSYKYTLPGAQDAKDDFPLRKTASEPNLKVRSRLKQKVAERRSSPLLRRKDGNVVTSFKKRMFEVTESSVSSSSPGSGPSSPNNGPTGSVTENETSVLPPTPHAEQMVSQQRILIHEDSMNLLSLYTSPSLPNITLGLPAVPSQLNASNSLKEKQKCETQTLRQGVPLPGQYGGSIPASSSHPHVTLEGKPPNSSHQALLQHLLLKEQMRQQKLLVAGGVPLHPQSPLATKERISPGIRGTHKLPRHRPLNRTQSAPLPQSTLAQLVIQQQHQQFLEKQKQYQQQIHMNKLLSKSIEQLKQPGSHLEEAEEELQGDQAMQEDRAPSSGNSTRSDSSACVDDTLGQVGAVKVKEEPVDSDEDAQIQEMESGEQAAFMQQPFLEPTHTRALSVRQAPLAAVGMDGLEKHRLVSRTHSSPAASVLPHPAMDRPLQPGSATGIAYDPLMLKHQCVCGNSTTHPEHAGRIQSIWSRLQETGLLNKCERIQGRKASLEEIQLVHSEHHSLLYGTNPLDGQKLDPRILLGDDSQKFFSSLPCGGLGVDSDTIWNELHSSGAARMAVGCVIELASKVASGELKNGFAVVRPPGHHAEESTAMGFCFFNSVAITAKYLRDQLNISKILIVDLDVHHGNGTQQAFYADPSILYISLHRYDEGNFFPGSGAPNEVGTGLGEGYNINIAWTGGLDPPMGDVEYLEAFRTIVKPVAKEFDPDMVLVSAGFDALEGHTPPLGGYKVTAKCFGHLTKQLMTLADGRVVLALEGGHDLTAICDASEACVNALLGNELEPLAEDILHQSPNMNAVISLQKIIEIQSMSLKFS

For `O=C(CCCCCCC(=O)Nc1ccc(Cl)c(C(=O)Nc2ccc(NC(=O)c3cc(Cl)ccc3Cl)cc2)c1)NO` [IHR-SAHA], the “HDAC Activity (Fluorescent counts)” value (HDAC6; HDAC6, WW01 0 Log nM) was 17916 Fluorescent counts and 17639 Fluorescent counts, the “HDAC Activity (Fluorescent counts)” value (HDAC6; HDAC6, WW01 0.5 Log nM) was 16713 Fluorescent counts and 17763 Fluorescent counts and the “HDAC Activity (Fluorescent counts)” value (HDAC6; HDAC6, WW01 1 Log nM) was 14605 Fluorescent counts and 14491 Fluorescent counts. For the same compound, the “HDAC Activity (Fluorescent counts)” value (HDAC6; HDAC6, WW01 1.5 Log nM) was 11120 Fluorescent counts and 11971 Fluorescent counts, the “HDAC Activity (Fluorescent counts)” value (HDAC6; HDAC6, WW01 2 Log nM) was 7800 Fluorescent counts and 7793 Fluorescent counts and the “HDAC Activity (Fluorescent counts)” value (HDAC6; HDAC6, WW01 2.5 Log nM) was 5185 Fluorescent counts and 5345 Fluorescent counts. For the same compound, the “HDAC Activity (Fluorescent counts)” value (HDAC6; HDAC6, WW01 3 Log nM) was 4209 Fluorescent counts and 4174 Fluorescent counts, the “HDAC Activity (Fluorescent counts)” value (HDAC6; HDAC6, WW01 3.5 Log nM) was 3548 Fluorescent counts and 3756 Fluorescent counts and the “HDAC Activity (Fluorescent counts)” value (HDAC6; HDAC6, WW01 4 Log nM) was 3616 Fluorescent counts and 3660 Fluorescent counts. For the same compound, the “HDAC Activity (Fluorescent counts)” value (HDAC6; HDAC6, WW01 -0.5 Log nM) was 18352 Fluorescent counts and 17865 Fluorescent counts, the IC50 (HDAC6; [2]) was 47 nM and the “HDAC Activity (Fluorescent counts)” value (HDAC9; HDAC9, WW01 0 Log nM) was 15707 Fluorescent counts and 17505 Fluorescent counts. The “HDAC Activity (Fluorescent counts)” value (HDAC9; HDAC9, WW01 0.5 Log nM) was 15735 Fluorescent counts and 16677 Fluorescent counts, the “HDAC Activity (Fluorescent counts)” value (HDAC9; HDAC9, WW01 1 Log nM) was 15823 Fluorescent counts and 16968 Fluorescent counts and the “HDAC Activity (Fluorescent counts)” value (HDAC9; HDAC9, WW01 1.5 Log nM) was 15598 Fluorescent counts and 16390 Fluorescent counts. The “HDAC Activity (Fluorescent counts)” value (HDAC9; HDAC9, WW01 2 Log nM) was 15941 Fluorescent counts and 16116 Fluorescent counts, the “HDAC Activity (Fluorescent counts)” value (HDAC9; HDAC9, WW01 2.5 Log nM) was 14685 Fluorescent counts and 15111 Fluorescent counts and the “HDAC Activity (Fluorescent counts)” value (HDAC9; HDAC9, WW01 3 Log nM) was 14898 Fluorescent counts and 14972 Fluorescent counts. The “HDAC Activity (Fluorescent counts)” value (HDAC9; HDAC9, WW01 3.5 Log nM) was 13364 Fluorescent counts and 15040 Fluorescent counts, the “HDAC Activity (Fluorescent counts)” value (HDAC9; HDAC9, WW01 4 Log nM) was 14972 Fluorescent counts and 13303 Fluorescent counts and the “HDAC Activity (Fluorescent counts)” value (HDAC9; HDAC9, WW01 -0.5 Log nM) was 15619 Fluorescent counts and 16563 Fluorescent counts. The IC50 (HDAC9; [2]) was > 10000 nM and the IC50 [1] was 140 nM.
